From PubChem BioAssay AID179 (DTP/NCI, 2004)
Values joined by “and” are separate entries in the source; they are usually repeats but may differ in a detail not shown here. Equal entries are not always repeated. Active and inactive are the calls of the source.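 The calls were made as follows: active = compounds giving half or more protection of infected cells from virus-caused growth loss, again on retest; inactive = the rest.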 Where a SMILES comes first, the peptide text is derived from it. [ ]: non-standard residue; d: D form. The star is where a group is joined. NMeAc5c = CNC1(C(=O)O)CCCC1; Boc = CC(C)(C)OC(=O)*; OBn = c1ccc(CO*)cc1

System: CEM cells HIV-1 protection, formazan growth assay
Experiment: NCI AIDS Antiviral Assay
Settings: for IC50: measured here: growth of uninfected CEM cells
Outline: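 CEM (human) cells, HIV-1 infected vs uninfected, 5-point dosing, formazan growth read-out. Retest threshold 50% protection.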

Structure (SMILES) | EC50 [µM] | IC50 | outcome
CC(C)N(C(=O)C12C3C4C5(C#N)C3C1(C#N)C5C42I)C(C)C (stereo unspecified) | > 617 | 316 µM | 
O=C1/C(=C/c2ccc(O)c(CN3CCCCC3)c2)CCC/C1=C\c1ccc(O)c(CN2CCCCC2)c1 |  |  | inactive
CCOC(=O)C1=C(C)N(c2ccc(C)cc2)C2=C(C(=O)N(c3ccccc3)C2c2ccccc2)C1c1ccccc1 (stereo unspecified) | > 5.01 | > 5.01 µM | 
Cc1ccc2c(c1)nc1sc(C)cc(=O)n12 | > 200 | > 200 µM | 
COc1cc(C=C2C(=O)OC(C)(C)OC2=O)cc(OC)c1OC | > 776 | 83.2 µM | 
O=c1[nH][nH]c(=O)c2nc3c(nc12)c1nc2c(=O)[nH][nH]c(=O)c2nc1c1nc2c(=O)[nH][nH]c(=O)c2nc31 |  |  | inactive
C(=C\c1csnn1)/c1cccnc1 | > 316 | 182 µM | 
O=S(=O)(c1ccccc1)C(CN1CCCCC1)S(=O)(=O)c1ccccc1 |  |  | inactive
COc1cc(/C=C2/C(=O)N=C(NC(C)=O)N2C)ccc1OC(C)=O | > 200 | > 200 µM | 
Cc1cccc(C)c1NC(=O)CCCC(=O)C1/C(=N/NC(=O)CC#N)CCC/C1=N\NC(=O)CC#N (stereo unspecified) | > 72.4 | > 72.4 µM | 
Cn1c(COC(=O)NC2CCCCC2)c(COC(=O)NC2CCCCC2)c2ccc3cc(C=O)ccc3c21 | > 174 | 2.19 µM | 
C/C(=N\[N+](C)(C)C)c1ccc(C)c(C)c1 | > 200 | 102 µM | 
COc1cc2nc3n(c2cc1OC)C(O)c1c(Cl)nc(SC)nc1S3 (stereo unspecified) | > 200 | 7.76 µM | 
Nc1[nH]c(=O)nc2snnc12 | > 200 | 4.79 µM | 
CN(C(=O)C(Cc1ccccc1)NC(=O)OC(C)(C)C)C1(C(=O)NC(Cc2ccccc2)C(=O)OCc2ccccc2)CCCC1 (stereo not drawn) (Boc-Phe-[NMeAc5c]-Phe-OBn; configuration not given here) | > 200 | 11 µM | 
COP(C)(=O)C1=CCN(C(=O)OCC[Si](C)(C)C)CC1 (stereo unspecified) | > 200 | > 200 µM | 
Cc1cc[c]([Sb](=[O])([OH])[c]2ccc(C)cc2)cc1 | > 5.01 | 0.851 µM | 
COC(=O)[C@H](Cc1c[nH]c2ccccc12)NP(=O)(O)OCC1C=CC(n2cc(C)c(=O)[nH]c2=O)O1 (stereo partly specified) | 28.2 | > 200 µM | 
Cn1c(=O)c2c(nc3n(CCCCl)c(=O)ccn23)n(C)c1=O | > 200 | > 100 µM | 
CC1=N/C(=C\c2ccc(N(C)C)cc2)C(=O)O1 | > 81.3 | > 81.3 µM | 
CC(C)=CCc1c(O)cc(O)c2c1OC(c1ccc(O)cc1)C(O)C2=O (stereo unspecified) | > 363 | 17.8 µM | 
COC(=O)C1=CC2C=CC(C1C(=O)OC)C1C(C(=O)OC)=C(C(=O)OC)C(C(=O)OC)=C(C(=O)OC)C21OC (stereo unspecified) |  |  | inactive

Structure (SMILES) | EC50 [µM] | IC50 | outcome
O=C(CCN1CCCCC1)c1cc2cc([N+](=O)[O-])ccc2oc1=O | > 219 | 112 µM | 
CN(C)C1COC2Cc3ccccc3C1O2 (stereo unspecified) | > 200 | > 200 µM | 
COc1ccc(N/C=C/C2=[N+](C)c3ccccc3C2(C)C)c(OC)c1 | > 479 | 38.9 µM | 
Cc1cccnc1/N=C/c1c(O)n(C)c(=O)[nH]c1=O | > 200 | > 200 µM | 
CCn1c(=O)c(N=O)c(N)n(CC(C)O)c1=O (stereo unspecified) | > 200 | > 200 µM | 
COC1(OC)N=C(N)C2(C#N)C(C)CC(=O)N(N(C)C)C12C#N (stereo unspecified) | > 200 | > 200 µM | 
COc1cccc(N2C(=O)C3c4[nH]c5ccccc5c4C4CCCC4C3C2=O)c1 (stereo unspecified) | > 200 | > 200 µM | 
c1ccc(N2C3Sc4ncccc4C2Sc2ncccc23)cc1 | > 66.1 | > 66.1 µM | 
N#CCCN(CCC#N)c1ccc(/C=C2\CC(O)(c3ccccc3)NC2=O)cc1 (stereo unspecified) | > 7.08 | > 7.08 µM | 
COc1cc(CC2c3cc(OC)c(OC)cc3CCN2C)c(C(=O)O)cc1OC (stereo unspecified) |  |  | inactive
CN1CC=C(OP(=O)(NCc2ccccc2)N(CCCl)CCCl)CC1 (stereo unspecified) | > 200 | 135 µM | 
O=C(O)C1Cc2[nH]c3ccccc3c2C2CCCC12 (stereo unspecified) | > 708 | 363 µM | 
O=C1c2cc(Cl)ccc2-n2c(noc2=O)C2CSCN12 (stereo unspecified) | > 200 | > 200 µM | 
CCOC(=O)C(Cl)(NC(=O)c1ccc(F)cc1)C(F)(F)F (stereo unspecified) | > 200 | > 200 µM | 
S=C1OC2C3C4CC5C3C(O1)C1C5C4C21 (stereo unspecified) |  |  | inactive
O=C(OC1CCCCC1)c1cc(NC(=S)c2ccsc2)ccc1Cl | 0.141 | 11.2 µM | 
CC1C[C@@H]2C(=O)NC(=O)[C@@H]2c2c1c1ccccc1n2C (stereo partly specified) | > 331 | 214 µM | 
CC1(C)CC(=O)C(CCC(=O)/C=C/c2ccccc2)C(=O)C1 | > 87.1 | > 87.1 µM | 
COc1cccc(/C=C(\NC(C)=O)c2nc3ccc(Cl)cc3[nH]2)c1 |  |  | inactive
Cc1ccc([N+](=O)[O-])cc1NC(=O)C(=O)Cc1nc2ccc(C(=O)c3ccccc3)cc2[nH]c1=O | > 275 | 110 µM | 
O=c1cc2oc3cc(O)c(O)cc3c(-c3ccccc3)c-2cc1O | > 200 | 39.8 µM and 83.2 µM | 
NC(N)=N/N=C(/CC1OC(=O)c2ccccc21)c1ccc2ccccc2c1 (stereo unspecified) | > 28.2 | > 28.2 µM | 
